Test results reported in patent US7547718B2, “Substituted imidazoles” (Pfizer Limited, priority 2006, dated 2009).

System: Rhipicephalus sanguineus (brown dog tick)
Test: In vitro tick assay (Rhip. Funct.)
Settings: unfed R. sanguineus in precoated glass vials; lowest dose at which all five ticks were seen moving; observed at 24, 48 and 72 hours
Description: Application of octopamine agonists to acarids for example, ticks, causes distinct behavioural changes compared to untreated control ticks. Treated ticks become agitated and move constantly, this prevents ticks attaching and feeding on a host animal to which the compound has been applied. Normal behaviour of ticks is to go into stasis when all other external stimuli are removed. Agitation and movement can be measured in vitro in the laboratory to predict efficacy and potency in vivo.
The assay was run using unfed Rhipicephalus sanguineus (brown dog tick) and precoated glass vials with an inner surface area of 34.5 cm^2. Each compound was tested in duplicate.
Compound (345 μg) was dissolved in isopropyl alcohol (500 μl) and delivered to each vial. The vials were placed on a tilting roller in a fume hood for 2 hours to allow the isopropyl alcohol to evaporate giving a compound concentration for each vial of 10 μg/cm^2. Five R. sanguineus (male and female) were added to each coated vial and the vial sealed with a firm wad of cotton wool. Vials were then kept, undisturbed, on the bench at room temperature. Observation and recordings of activity were taken at 24, 48 and 72 hours after addition of ticks to the vials. The ED100 value was determined as the lowest dose at which all five ticks were seen moving around inside the vial.

Structure (SMILES)	Rhip. Funct. ED100
Cc1cccc(C(C)c2nccn2COC(=O)CC(C)C)c1C (centres unmarked) [Example 68, {2-[1-(2,3-Dimethylphenyl)ethyl]-1H-imidazol-1-yl}methyl 3-methyl butanoate]	0.03 mg/cm^2
Cc1cccc(C(C)c2nccn2COC(=O)OCCC(C)C)c1C (centres unmarked) [Example 139, {2-[1-(2,3-Dimethylphenyl)ethyl]-1H-imidazol-1-yl}methyl 3-methyl butyl carbonate]	<=0.03 mg/cm^2
Cc1cccc(C(C)c2nccn2COC(=O)OC2CCC2)c1C (centres unmarked) [Example 141, Cyclobutyl{2-[1-(2,3-dimethylphenyl)ethyl]-1H-imidazol-1-yl}methyl carbonate]	0.03 mg/cm^2
Cc1cccc(C(C)c2nccn2COC(=O)NCCc2ccc(Cl)cc2Cl)c1C (centres unmarked) [Example 148, {2-[1-(2,3-Dimethylphenyl)ethyl]-1H-imidazol-1-yl}methyl[2-(2,4-dichlorophenyl)ethyl]carbamate]	>1 mg/cm^2
CCC(CC)COC(=O)n1ccnc1[C@@H](C)c1cccc(C)c1C [Example 233, 2-Ethyl butyl 2-[(1S)-1-(2,3-dimethylphenyl)ethyl]-1H-imidazole-1-carboxylate]	<=10 mg/cm^2
CCC(C)C(C)COC(=O)n1ccnc1[C@@H](C)c1cccc(C)c1C (stereo partly drawn) [Example 253, 2,3-Dimethyl pentyl 2-[(1S)-1-(2,3-dimethylphenyl)ethyl]-1H-imidazole-1-carboxylate]	0.1 mg/cm^2
Cc1cccc([C@H](C)c2nccn2C(=O)OCc2c(F)c(F)c(F)c(F)c2F)c1C [Example 270, Pentafluorobenzyl 2-[(1S)-1-(2,3-dimethylphenyl)ethyl]-1H -imidazole-1-carboxylate]	<=10 mg/cm^2
Cc1cccc([C@H](C)c2nccn2C(=O)OCc2c(C)c(C)c(C)c(C)c2C)c1C [Example 294, Pentamethylbenzyl 2-[(1S)-1-(2,3-dimethylphenyl)ethyl]-1H -imidazole-1-carboxylate]	>0.03 mg/cm^2
